Results published in publication PMC8321398, “The discovery of a novel series of compounds with single-dose efficacy against juvenile and adult Schistosoma species” (PLoS Neglected Tropical Diseases, 2021).

Tests used:
[1] = in vivo; conditions: rat
[2] = tested on: panel of 38 in vitro toxicity targets (receptors, channels, transporters); assay: Broad selectivity panel (Cerep), radioligand receptor binding assays; conditions: 1uM
Method: Selectivity was assessed at Cerep (Celle l’ Evescault, France), as described in the Cerep catalog, against a panel of in vitro radioligand receptor binding assays with 38 different receptors, channels, and transporters selected as targets to avoid for safety reasons (beta 1, beta 2, NMDA, MAO-A, 5-HT1B, CCK1 (CCKA), BZD (central), delta (DOP), A2A, CB1, CB2, D1, D2S, ETA, H1, H2, M1, M2, M3, 5-HT1A, 5-HT2A, 5-HT2B, 5-HT3, GR, AR, V1a, kappa (KOP), mu (MOP), alpha 1A, alpha 2A, Ca2+ channel, Potassium Channel, Kv channel, Na+ channel, N neuronal alpha 4 beta 2, norepinephrine transporter, dopamine transporter, 5-HT transporter). The specific ligand binding to the receptors is defined as the difference between the total binding, and the nonspecific binding determined in the presence of an excess of unlabelled ligand.

| SMILES | AUC(0-inf) ([1]; iv, 1 mg/kg) | Vd ([1]; iv, 1 mg/kg) | bioavailability ([1]; po, 10 mg/kg) | activity against panel of 38 in vitro toxicity targets [2] |
| --- | --- | --- | --- | --- |
| Fc1ccc(-c2cn3c(-c4ccc5[nH]ncc5c4F)c(C(F)(F)F)nc3cn2)cc1C(F)(F)F [LSHTM-3642, 3-(4-fluoro-1H-indazol-5-yl)-6-(4-fluoro-3-(trifluoromethyl)phenyl)-2-(trifluoromethyl)imidazo[1,2-a]pyrazine] | 5000 ng·h/mL | 8.8 L/kg | 67% | – |
| Fc1ccc(-c2cn3c(-c4ccc5[nH]ncc5c4F)c(C(F)(F)F)nc3cn2)cc1C(F)(F)C(F)(F)F [LSHTM-3645] | – | – | – | no reproduceable activity |
